We go through 4 compounds from ChEMBL document CHEMBL4406872, “Synthesis and structure activity relationship of 1, 3-benzo-thiazine-2-thiones as selective HDAC8 inhibitors” (Eur J Med Chem, 2019).

The nature of the data set: physchem. The settings on record: bicarbonate buffer.
In general, amount remaining refers to what is left of the initial amount, in per cent. The low end stands for a greater loss, the high end for greater stability. The compound `Fc1ccc2c(c1)C1=NCCN1C(=S)S2` had a fraction remaining at 24 h, 5000 µM above 95%.
As for `Cc1cccc2c1C1=NCCN1C(=S)S2`, the figure is above 95%.
Then `S=C1Sc2cc(Br)ccc2C2=NCCCN12`, with above 95%.
In the case of `N=C1Sc2ccccc2C2=NCCCN12`, the amount remaining at 24 h, 5000 µM was below 5%.
